Results: patent EP1156056A1, “5-GLYCOSYLOXY-6-HYDROXYNAPHTHO 2,3-f]QUINOLINE-7,12-DIONE HAVING ANTICANCER ACTIVITIES” (ZAIDAN HOJIN BISEIBUTSU KAGAKU KENKYU KAI, priority 1999, dated 2000)
≈ marks a conversion by molar mass, not a printed value. Where two headings read alike, the source gives them in different places.

Columns and labels:
ICR mice = assay: Acute toxicity in mice, survival after intraperitoneal administration (Test Example 2)
Experimental: In this Test Example, the acute toxicity of Compound A of this invention as administered to mice was evaluated. […] By way of comparison, similar test was carried out with adriamycin (in the form of hydrochloride) .

[1] = test system: human pudendal squamous cell carcinoma (A431); assay: Inhibition of proliferation of cancer cells in culture (Test Example 1); format: cell-based; conditions: A-431, 72 hours cultivation, read-out: Concentration of test compound to inhibit the proliferation of cancer cells by 50 %
Experimental: (§1) A culture medium for cancer cells was put into test tubes. To the culture medium in each tube, there was transplanted each of such various mouse cancer cells or human cancer cells as shown in Table 1 below. The cells so transplanted were cultivated under the conditions at 37°C in an air atmosphere containing 5 % CO2. To the medium containing the cancer cells so cultivated, there was added said Compounds A, B, D, E or F of this invention at different concentrations, as the test compound. […] As the comparative compound, adriamycin now clinically used was tested to repeat the test in the same way.
(§2) Namely, they are mouse colon cancer (colon 26), mouse B-cell lymphoma (LB32T), mouse lymphoma (L-1210), human cervical cancer (HeLa), human acute promyeloleukemia (HL60), human prostatic cancer (PC3), human pudendal squamous cell carcinoma (A431), human pulmonary carcinoma (PC6), human mastocarcinoma (MCF7), human esophageal carcinoma (TT), human prostatic cancer (LNcap) and human colon cancer (DLD-1).

[2] = test system: human esophageal carcinoma (TT); assay: as above; format: cell-based; conditions: 72 hours cultivation, read-out: Concentration of test compound to inhibit the proliferation of cancer cells by 50 %
Experimental: as §1, §2

[3] = test system: human pulmonary carcinoma (PC6); assay: as above; format: cell-based; conditions: 72 hours cultivation, read-out: Concentration of test compound to inhibit the proliferation of cancer cells by 50 %
Experimental: as §1, §2

[4] = test system: human mastocarcinoma (MCF7); assay: as above; format: cell-based; conditions: 72 hours cultivation, read-out: Concentration of test compound to inhibit the proliferation of cancer cells by 50 %
Experimental: as §1, §2

[5] = test system: human prostatic cancer (LNcap); assay: Inhibition of proliferation of cancer cells in culture (Test Examples 1 and 3); format: cell-based
Experimental: as §1, §2
(§3) The test method and the nature of cancer cells to be tested are the same as those in Test Example 1 given hereinbefore. In this Test Example 3, however, eight kinds of cancer cells indicated in Table 3 below are used, among the twelve kinds of cancer cells which were used in Test Example 1.
(§4) As the test results of measurement, the evaluated values of the concentration of each test compound which could inhibit the proliferation of cancer cells by 50 % (namely, 50 % inhibitory concentration:IC50, µg/ml) are given in Table 3.

[6] = test system: human colon cancer (DLD-1); assay: as above; format: cell-based; conditions: for IC50: Homo sapiens; for anticancer activities against DLD-1, times higher than those of adriamycin: Test Example 1, relative to adriamycin
Experimental: as §1, §2, §3, §4

[7] = test system: human cervical cancer (HeLa); assay: as above; format: cell-based
Experimental: as §1, §2, §3, §4

[8] = test system: human prostatic cancer (PC3); assay: as above; format: cell-based; conditions: for IC50: Homo sapiens; for anticancer activities against PC3, times higher than those of adriamycin: Test Example 1, relative to adriamycin
Experimental: as §1, §2, §3, §4

[9] = test system: mouse colon cancer (colon 26); assay: as above; format: cell-based
Experimental: as §1, §2, §3, §4

[10] = test system: mouse B-cell lymphoma (LB32T); assay: as above; format: cell-based
Experimental: as §1, §2, §3, §4

[11] = test system: human acute promyeloleukemia (HL60); assay: as above; format: cell-based
Experimental: as §1, §2, §3, §4

mouse lymphoma (L-1210) = assay: as above; format: cell-based
Experimental: as §1, §2, §3, §4

[12] = LNcap, 72 hours cultivation, Test Example 1, read-out: Concentration of test compound to inhibit the proliferation of cancer cells by 50 %, IC50
[13] = 72 hours cultivation, Test Example 1, read-out: Concentration of test compound to inhibit the proliferation of cancer cells by 50 %, IC50
[14] = Test Example 3, Compounds N to T used as trifluoroacetate, read-out: IC50
[15] = colon26, 72 hours cultivation, Test Example 1, read-out: Concentration of test compound to inhibit the proliferation of cancer cells by 50 %, IC50
[16] = HL-60, 72 hours cultivation, Test Example 1, read-out: Concentration of test compound to inhibit the proliferation of cancer cells by 50 %, IC50
[17] = L1210, 72 hours cultivation, Test Example 1, read-out: Concentration of test compound to inhibit the proliferation of cancer cells by 50 %, IC50
[18] = ICR, mouse, in vivo, ip, 14 days

| Structure (SMILES) | IC50 [1] [µg/mL] | IC50 [2] [µg/mL] | IC50 [3] [µg/mL] | IC50 [4] [µg/mL] | IC50 [5, 12] [µg/mL] | IC50 [6, 13] [µg/mL] | IC50 [7, 13] [µg/mL] | IC50 [8, 13] [µg/mL] | IC50 [9, 15] [µg/mL] | IC50 [10, 13] [µg/mL] | IC50 [11, 16] [µg/mL] | IC50 (mouse lymphoma (L-1210); [17]) [µg/mL] | anticancer activities against DLD-1, times higher than those of adriamycin [6] [times] | anticancer activities against PC3, times higher than those of adriamycin [8] [times] | further results |
| --- | --- | --- | --- | --- | --- | --- | --- | --- | --- | --- | --- | --- | --- | --- | --- |
| COc1cccc2c1C(=O)c1c(O)c3c(c(O)c1C2=O)C[C@@](O)(C(=O)CO)C[C@@H]3O[C@H]1C[C@H](N)[C@H](O)[C@H](C)O1 [Adriamycin, reference compound] | 1.33 (≈ 2.45 µM) | 1.38 (≈ 2.54 µM) | 1.01 (≈ 1.86 µM) | 1.02 (≈ 1.88 µM) | 0.07 (≈ 0.129 µM) | 1.9 (≈ 3.5 µM) | 0.06 (≈ 0.11 µM) | 0.9 (≈ 1.66 µM) | 0.07 (≈ 0.129 µM) | 0.03 (≈ 0.0552 µM) | 0.03 (≈ 0.0552 µM) | 0.24 (≈ 0.442 µM) |  |  | dosage at which the total number of mice survived for 14 days (ICR mice; ICR mice, intraperitoneal, 14 days): 0.125 mg/mouse; Survival day(s) of respective mice (ICR mice; ICR mice, intraperitoneal, dosage 0.125 mg/mouse, 4 mice per group, observed 14 days): >14 (all mice) day(s); IC50 ([5]; LNCap, Test Example 3, Compounds N to T used as trifluoroacetate, read-out: IC50): 0.1 µg/mL (≈ 0.184 µM); IC50 [6, 14]: 3.4 µg/mL (≈ 6.26 µM); IC50 [7, 14]: 0.06 µg/mL (≈ 0.11 µM); IC50 [8, 14]: 1.14 µg/mL (≈ 2.1 µM); IC50 ([9]; Colon26, Test Example 3, Compounds N to T used as trifluoroacetate, read-out: IC50): 0.09 µg/mL (≈ 0.166 µM); IC50 [10, 14]: 0.04 µg/mL (≈ 0.0736 µM); IC50 ([11]; HL-60, Test Example 3, Compounds N to T used as trifluoroacetate, read-out: IC50): 0.03 µg/mL (≈ 0.0552 µM); IC50 (mouse lymphoma (L-1210); L1210, Test Example 3, Compounds N to T used as trifluoroacetate, read-out: IC50): 0.38 µg/mL (≈ 0.699 µM) |
| C[C@@H]1O[C@@H](Oc2c(O)c3c(c4cccnc24)C(=O)c2ccccc2C3=O)[C@H](F)[C@H](O)[C@@H]1O [Compound A, 5-(2,6-dideoxy-2-fluoro-α-L-talopyranosyloxy)-6-hydroxynaphtho[2,3-f]quinoline-7,12-dione] | 3.36 (≈ 7.65 µM) | 3.16 (≈ 7.19 µM) | 4.34 (≈ 9.88 µM) | 2.23 (≈ 5.08 µM) | 0.28 (≈ 0.637 µM) | 0.12 (≈ 0.273 µM) | 0.46 (≈ 1.05 µM) | 0.16 (≈ 0.364 µM) | 0.32 (≈ 0.728 µM) | 0.43 (≈ 0.979 µM) | 0.36 (≈ 0.819 µM) | 0.59 (≈ 1.34 µM) | 16 | 5.6 | Survival day(s) of respective mice (ICR mice; [18]): >14 (all mice) day(s); dosage at which the total number of mice survived for 14 days (ICR mice; [18]): 4 mg/mouse |
| CO[C@H]1[C@H](Oc2c(O)c3c(c4cccnc24)C(=O)c2ccccc2C3=O)O[C@@H](C)[C@@H](O)[C@H]1O [Compound B, 5-(6-deoxy-2-O-methyl-α-L-talopyranosyloxy)-6-hydroxynaphtho[2,3-f]quinoline-7,12-dione] | 3.33 (≈ 7.38 µM) | 3.46 (≈ 7.66 µM) | 4.15 (≈ 9.19 µM) | 2.59 (≈ 5.74 µM) | 1.54 (≈ 3.41 µM) | 1.13 (≈ 2.5 µM) | 1.65 (≈ 3.66 µM) | 1.59 (≈ 3.52 µM) |  |  | 1.51 (≈ 3.34 µM) |  | 1.7 |  |  |
| C[C@@H]1O[C@@H](Oc2c(O)c3c(c4cccnc24)C(=O)c2ccccc2C3=O)[C@@H](F)[C@H](O)[C@@H]1O [Compound D, 5-(2,6-dideoxy-2-fluoro-α-L-galactopyranosyloxy)-6-hydroxynaphtho[2,3-f]quinoline-7,12-dione] | 1.26 (≈ 2.87 µM) | 1.18 (≈ 2.69 µM) | 1.06 (≈ 2.41 µM) | 1.24 (≈ 2.82 µM) | 0.31 (≈ 0.706 µM) | 0.12 (≈ 0.273 µM) | 0.45 (≈ 1.02 µM) | 0.11 (≈ 0.25 µM) | 0.2 (≈ 0.455 µM) | 0.3 (≈ 0.683 µM) | 0.35 (≈ 0.797 µM) | 0.47 (≈ 1.07 µM) | 16 | 8.2 |  |
| C[C@@H]1O[C@H](Oc2c(O)c3c(c4cccnc24)C(=O)c2ccccc2C3=O)[C@@H](F)[C@H](O)[C@@H]1O [Compound E, 5-(2,6-dideoxy-2-fluoro-β-L-galactopyranosyloxy)-6-hydroxynaphtho[2,3-f]quinoline-7,12-dione] | 1.11 (≈ 2.53 µM) | 1.12 (≈ 2.55 µM) | 1.08 (≈ 2.46 µM) | 1.26 (≈ 2.87 µM) | 0.1 (≈ 0.228 µM) | 0.04 (≈ 0.091 µM) | 0.16 (≈ 0.364 µM) | 0.08 (≈ 0.182 µM) | 0.23 (≈ 0.523 µM) | 0.26 (≈ 0.592 µM) | 0.33 (≈ 0.751 µM) | 0.54 (≈ 1.23 µM) |  | 11 |  |
